Key:
Assay type in all cases: functional, tissue-based
Details in all cases: Cavia porcellus, 0.5 h
Ileum [1] = assay: Antispasmodic activity in guinea pig ileum assessed as inhibition of acetylcholine-induced tissue contraction after 30 mins
Ileum [2] = assay: Antispasmodic activity in guinea pig ileum assessed as inhibition of electrically-induced tissue contraction after 30 mins
Ileum [3] = assay: Antispasmodic activity in guinea pig ileum assessed as inhibition of histamine-induced tissue contraction after 30 mins

| SMILES | IC50 (Ileum [1]) [µM] | IC50 (Ileum [2]) [µM] | IC50 (Ileum [3]) [µM] |
| --- | --- | --- | --- |
| COc1ccc2c(c1)/C=C\N=C\c1cc(O)ccc1CC2=O | 85 | 86 | 59 |
| O=C1Cc2ccc(O)cc2/C=N/C=C\c2cc(O)ccc21 [CONSTRICTOSINE] | 75 | 66 | 51 |

Now those with a lower IC50 (Ileum [1]), led by results:

| IC50 (Ileum [1]) [µM] | IC50 (Ileum [2]) [µM] | IC50 (Ileum [3]) [µM] | SMILES |
| --- | --- | --- | --- |
| 58 | 66 | 68 | COc1ccc2c(c1)/C=C\N=C\c1cc(OC)ccc1CC2=O |
| 26 | 21 | 26 | O=C1Cc2ccc(O)cc2/C=N/CCc2cc(O)ccc21 |
| 20 | 19 | 22 | COc1ccc2c(c1)/C=N/CCc1cc(OC)ccc1C(=O)C2 |

Reference: ChEMBL document CHEMBL1158319, “New protopine and benzyltetrahydroprotoberberine alkaloids from Aristolochia constricta and their activity on isolated guinea-pig ileum” (J Nat Prod, 1997)
